This is an account of results in patent US6162417A, “Pyrrolo isoquinolines” (Emory University, priority 1998, dated 2000).

The structures appear in SMILES notation. Entries after “also recorded” stand apart in the source; their conditions may differ. Like-named read-outs stand apart in the source and are kept apart here.

Series [1] addresses T1, serotonin transporter (Rattus norvegicus, UniProt P31652).
T1 construct: in rat cortical and striatal homogenates; from tissue; host or cells: rat brain, striatal and cortical homogenates/membranes
Nature of the series: Transporter binding site inhibition in rat brain striatal and cortical membranes - serotonin transporter ([3H]citalopram). As to conditions: for in vitro affinity/selectivity for the serotonin transporter: rat membranes, Table 2. From the text: (§1) Transporter Binding Site Inhibition Data for Various
(§2) Ligands in Rat Brain Striatial and Cortical Membranes

The target in series [2] is T2, norepinephrine transporter (Rattus norvegicus, UniProt Q63380).
T2 construct: in rat cortical and striatal homogenates; from tissue; host or cells: rat brain, striatal and cortical homogenates/membranes
T2 sequence (Q63380 1-617): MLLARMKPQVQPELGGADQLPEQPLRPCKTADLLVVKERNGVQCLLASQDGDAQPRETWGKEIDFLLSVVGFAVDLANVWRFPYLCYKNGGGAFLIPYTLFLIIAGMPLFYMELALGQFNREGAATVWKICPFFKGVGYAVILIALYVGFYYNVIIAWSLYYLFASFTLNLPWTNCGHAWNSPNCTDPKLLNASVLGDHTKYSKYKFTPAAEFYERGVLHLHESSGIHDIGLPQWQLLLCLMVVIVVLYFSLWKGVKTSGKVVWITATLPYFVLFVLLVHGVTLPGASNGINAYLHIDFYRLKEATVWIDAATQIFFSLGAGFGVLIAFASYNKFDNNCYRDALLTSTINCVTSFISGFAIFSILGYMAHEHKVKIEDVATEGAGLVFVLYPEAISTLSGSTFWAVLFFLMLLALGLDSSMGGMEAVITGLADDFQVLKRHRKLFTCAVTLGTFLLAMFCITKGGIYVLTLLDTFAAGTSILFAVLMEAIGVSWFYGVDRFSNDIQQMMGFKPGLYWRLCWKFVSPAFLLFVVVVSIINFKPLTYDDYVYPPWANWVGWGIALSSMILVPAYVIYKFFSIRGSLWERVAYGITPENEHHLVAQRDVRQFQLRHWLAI
In words: Transporter binding site inhibition in rat brain striatal and cortical membranes - norepinephrine transporter ([3H]desmethylimipramine). As to conditions: vs. [3H]desmethylimipramine, read-out: NE Ki.
Text: as §1, §2

The target of a further series is T3, dopamine transporter (Rattus norvegicus, UniProt P23977).
T3 construct: in rat cortical and striatal homogenates; from tissue; host or cells: rat brain, striatal and cortical homogenates/membranes
T3 sequence (P23977 whole entry): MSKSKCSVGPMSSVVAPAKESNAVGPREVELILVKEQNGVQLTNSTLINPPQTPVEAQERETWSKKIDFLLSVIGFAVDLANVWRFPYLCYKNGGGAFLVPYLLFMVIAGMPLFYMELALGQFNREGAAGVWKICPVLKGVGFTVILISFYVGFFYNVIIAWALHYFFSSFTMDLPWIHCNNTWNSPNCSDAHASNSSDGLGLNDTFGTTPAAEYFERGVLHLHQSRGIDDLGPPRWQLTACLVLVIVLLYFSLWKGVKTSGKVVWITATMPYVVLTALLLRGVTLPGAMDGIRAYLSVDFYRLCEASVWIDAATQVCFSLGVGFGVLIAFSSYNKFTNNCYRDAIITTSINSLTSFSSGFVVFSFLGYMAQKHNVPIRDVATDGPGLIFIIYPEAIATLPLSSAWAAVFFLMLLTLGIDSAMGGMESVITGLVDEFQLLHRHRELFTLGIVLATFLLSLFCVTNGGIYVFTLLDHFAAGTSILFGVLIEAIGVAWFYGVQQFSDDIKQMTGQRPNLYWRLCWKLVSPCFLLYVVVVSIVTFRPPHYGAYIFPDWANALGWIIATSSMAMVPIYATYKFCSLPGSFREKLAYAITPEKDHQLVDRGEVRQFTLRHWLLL
Nature of the series: Transporter binding site inhibition in rat brain striatal and cortical membranes - dopamine transporter ([3H]WIN 35428).
Text: as §1, §2

The target of series [3] is T4, human norepinephrine transporter (Homo sapiens, UniProt P23975).
T4 construct: expressed in transfected cells; host or cells: HEK-293, stably transfected
T4 sequence (P23975 whole entry): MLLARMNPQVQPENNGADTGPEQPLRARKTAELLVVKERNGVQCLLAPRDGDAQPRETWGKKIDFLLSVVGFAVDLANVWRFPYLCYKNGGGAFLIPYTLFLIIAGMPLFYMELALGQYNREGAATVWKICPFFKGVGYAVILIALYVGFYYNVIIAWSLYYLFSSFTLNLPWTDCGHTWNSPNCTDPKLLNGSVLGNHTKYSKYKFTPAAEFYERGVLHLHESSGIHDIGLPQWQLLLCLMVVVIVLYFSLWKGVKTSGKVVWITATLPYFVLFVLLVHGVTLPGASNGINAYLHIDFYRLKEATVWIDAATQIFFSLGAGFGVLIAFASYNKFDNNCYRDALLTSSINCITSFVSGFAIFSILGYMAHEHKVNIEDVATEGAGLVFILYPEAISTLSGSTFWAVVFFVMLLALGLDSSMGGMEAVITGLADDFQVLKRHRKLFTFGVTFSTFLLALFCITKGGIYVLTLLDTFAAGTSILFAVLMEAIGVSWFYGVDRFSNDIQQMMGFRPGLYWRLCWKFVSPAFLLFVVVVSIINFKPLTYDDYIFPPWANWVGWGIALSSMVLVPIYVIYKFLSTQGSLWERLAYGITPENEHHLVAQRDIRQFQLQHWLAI
In words: Binding site inhibition in HEK-293 cell membranes transfected with human norepinephrine transporter ([3H]Nisoxetine). To be noted: HEK-293 cells, human NE transporter; vs. [3H]Nisoxetine. From the text:
^2 [^3 H]Nisoxetine as reference/control for norepinephrine

In series [4] the target is T5, human serotonin transporter (Homo sapiens, UniProt P31645).
T5 construct: expressed in transfected cells; host or cells: HEK-293, stably transfected
T5 sequence (P31645 whole entry): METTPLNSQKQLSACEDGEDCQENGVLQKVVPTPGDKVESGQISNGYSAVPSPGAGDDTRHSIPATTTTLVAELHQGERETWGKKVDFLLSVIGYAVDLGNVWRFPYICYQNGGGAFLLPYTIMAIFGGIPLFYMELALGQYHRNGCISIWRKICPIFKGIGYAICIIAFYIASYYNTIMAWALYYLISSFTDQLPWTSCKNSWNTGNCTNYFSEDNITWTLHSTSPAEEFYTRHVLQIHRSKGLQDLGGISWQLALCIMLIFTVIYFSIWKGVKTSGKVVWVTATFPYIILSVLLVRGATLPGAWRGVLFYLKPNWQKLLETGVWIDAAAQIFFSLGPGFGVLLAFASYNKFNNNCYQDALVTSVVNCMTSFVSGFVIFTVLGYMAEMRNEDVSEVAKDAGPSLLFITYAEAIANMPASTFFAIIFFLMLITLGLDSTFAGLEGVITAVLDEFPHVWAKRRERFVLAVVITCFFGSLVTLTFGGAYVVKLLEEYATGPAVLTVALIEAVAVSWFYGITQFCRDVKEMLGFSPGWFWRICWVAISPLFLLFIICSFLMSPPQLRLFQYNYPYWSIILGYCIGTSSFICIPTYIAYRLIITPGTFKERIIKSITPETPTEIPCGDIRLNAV
Nature of the series: Binding site inhibition in HEK-293 cell membranes transfected with human serotonin transporter ([3H]Citalopram). As to conditions: for in vitro affinity/selectivity for transporter sites: human transporters, Table 3.

In series [5] the target is T6, human dopamine transporter (Homo sapiens, UniProt Q01959).
T6 construct: expressed in transfected cells; host or cells: MDCK (dog kidney) cells, stably transfected
T6 sequence (Q01959 whole entry): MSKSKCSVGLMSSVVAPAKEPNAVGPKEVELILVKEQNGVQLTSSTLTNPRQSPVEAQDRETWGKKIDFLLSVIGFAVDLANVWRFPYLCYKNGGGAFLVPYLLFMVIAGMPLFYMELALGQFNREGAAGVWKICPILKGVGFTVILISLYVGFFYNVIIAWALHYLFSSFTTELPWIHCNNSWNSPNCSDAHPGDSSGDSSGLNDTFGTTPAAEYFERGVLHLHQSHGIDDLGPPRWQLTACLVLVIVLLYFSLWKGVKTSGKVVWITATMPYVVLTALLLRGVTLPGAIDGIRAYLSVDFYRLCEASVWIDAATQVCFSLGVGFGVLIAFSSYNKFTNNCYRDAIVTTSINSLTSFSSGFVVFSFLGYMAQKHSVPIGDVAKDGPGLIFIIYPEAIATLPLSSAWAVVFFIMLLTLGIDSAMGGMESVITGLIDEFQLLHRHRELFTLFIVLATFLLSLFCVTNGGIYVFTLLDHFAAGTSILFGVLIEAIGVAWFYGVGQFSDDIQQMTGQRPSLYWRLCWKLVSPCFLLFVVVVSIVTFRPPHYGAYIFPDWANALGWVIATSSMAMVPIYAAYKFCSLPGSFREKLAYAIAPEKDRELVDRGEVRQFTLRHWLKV
Nature of the series: Binding site inhibition in MDCK cell membranes transfected with human dopamine transporter ([3H]WIN 35428).

A short description of series [6]: Regional brain uptake with and without preblocking by paroxetine or GBR 12909 (Table 5). The series is classed as in vivo, Sprague Dawley rats. As to conditions: rat, iv, 60 min. Here is the method: (§3) Regional Uptake (% dose/gram) and Ratios of
(§4) 95% ee(6S, 10bR)-I-McN in Sprague Dawley Rats
(§5) (n = 4) at 60 Min Following Preblocking
(§6) (5 mg/kg i.v. 15 min prior to radioligand)

Series [7] concerns serotonin transporter; dopamine transporter. The description is as above. Format: in vivo, Sprague Dawley rats. As to conditions: rat, 60 min. Here is the method: as §3, §4, §5, §6
Series [8] deals with serotonin transporter. As to conditions: carbon-11 label; cited from earlier work.
[9] abbreviates: rat striatal/cortical membranes, vs. [3H]citalopram, read-out: 5-HT Ki.
The mark [10] stands for this setting: rat striatal/cortical membranes, vs. [3H]WIN 35428, read-out: DA Ki.
[11] abbreviates: MDCK cells, human DA transporter, vs. [3H]WIN 35428, read-out: DA Ki.
The mark [12] stands for this setting: HEK-293 cells, human serotonin transporter, vs. [3H]Citalopram, read-out: 5-HT Ki.
Setting [13] is: dopamine blocker GBR 12909 5 mg/kg i.v. 15 min prior.
Setting [14] is: serotonin blocker paroxetine 5 mg/kg i.v. 15 min prior.

T1 sequence (P31652 whole entry): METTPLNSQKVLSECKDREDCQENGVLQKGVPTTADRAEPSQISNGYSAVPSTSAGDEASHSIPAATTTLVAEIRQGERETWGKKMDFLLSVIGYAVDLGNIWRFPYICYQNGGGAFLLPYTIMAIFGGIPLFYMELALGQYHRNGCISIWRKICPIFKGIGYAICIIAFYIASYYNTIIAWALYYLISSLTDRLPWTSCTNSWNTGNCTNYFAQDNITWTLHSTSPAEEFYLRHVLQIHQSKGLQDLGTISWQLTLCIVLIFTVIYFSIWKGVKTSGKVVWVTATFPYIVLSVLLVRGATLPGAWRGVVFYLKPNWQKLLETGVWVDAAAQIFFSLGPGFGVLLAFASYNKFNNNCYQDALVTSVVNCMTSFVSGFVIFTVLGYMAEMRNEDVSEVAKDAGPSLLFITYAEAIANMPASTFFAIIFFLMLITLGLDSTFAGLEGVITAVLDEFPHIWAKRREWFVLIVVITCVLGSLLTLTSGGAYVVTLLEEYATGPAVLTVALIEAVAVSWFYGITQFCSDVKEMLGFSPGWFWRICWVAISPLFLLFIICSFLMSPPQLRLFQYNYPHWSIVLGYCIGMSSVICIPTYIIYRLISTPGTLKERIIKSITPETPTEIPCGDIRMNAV

Regarding `Brc1ccc([C@@H]2CN3CCC[C@@H]3c3ccccc32)cc1` (relative stereo) [compound 5, trans-1,2,3,5,6,10b-hexahydro-6-[4-bromophenyl]pyrrolo-[2,1-a]isoquinoline], the “in vitro affinity/selectivity for the serotonin transporter” value on serotonin transporter [1] is “high in vitro affinity for the serotonin transporter”. Moreover, the inhibition constant (Ki) – broadly, a dissociation constant, usually derived from enzyme kinetics or from competition with a known ligand – is 5.1 nM at serotonin transporter [1] (setting [9]), 2390 nM in series [2] and 9.6 nM at dopamine transporter (setting [10]).
Regarding `Ic1ccc([C@@H]2CN3CCC[C@@H]3c3ccccc32)cc1` (relative stereo) [compound 6, trans-1,2,3,5,6,10b-hexahydro-6-[4-iodophenyl]pyrrolo-[2,1-a]isoquinoline], the “in vitro affinity/selectivity for the serotonin transporter” value on serotonin transporter [1] is “high in vitro affinity and good selectivity for the serotonin transporter”. For the same compound, the Ki came to 2.3 nM on serotonin transporter [1] (setting [9]); 10 nM in series [3]; 0.9 nM in [4]; 0.9 nM in [5] (setting [11]); 961 nM in series [2]; 14 nM at dopamine transporter (setting [10]). Besides, the “in vitro affinity/selectivity for transporter sites” value in [4] was “high affinity for both serotonin and dopamine transporter sites, and is selective for these two sites versus norepinephrine transporter site”.
For `FC/C=C\c1ccc([C@@H]2CN3CCC[C@@H]3c3ccccc32)cc1` (relative stereo) [compound 19, trans-1,2,3,5,6,10b-hexahydro-6-[4'Z-(3-fluoro-1-propenyl)phenyl]pyrrolo-[2,1-a]isoquinoline], the Ki at serotonin transporter [1] came to 2.8 nM; in [4] it was 1 nM; in [5] (setting [11]) it was 220 nM; on dopamine transporter, 221 nM. Also, the “in vitro affinity/selectivity for the serotonin transporter” value at serotonin transporter [1] was “high affinity for and the most selectivity for the serotonin transporter”. Further, the “in vitro affinity/selectivity for transporter sites” value in [4] was “high selectivity and affinity for serotonin transporter sites, compared with dopamine transporter site; also recorded: more selective than McN-5652Z for the serotonin transporter site, compared to the dopamine transporter site; also recorded: very high and equal affinity for the serotonin transporter site”.
As for `Fc1cccc2c1[C@H]1CCCN1C[C@H]2c1ccc(Br)cc1` (relative stereo) [racemic Br, X = F at position 10], the Ki in series [3] came out at 5 nM; in series [4] (setting [12]), 1.6 nM; in [5] (setting [11]), 0.15 nM. Also, the “affinity and selectivity for the dopamine transporter” value in [5] (human transporters, Table 3) was “high affinity and selectivity for the dopamine transporter”.
Consider `Brc1ccc([C@@H]2CN3CCC[C@@H]3c3ccccc32)cc1` (relative stereo) [racemic Br], for which the Ki was 2.3 nM in series [3], 0.68 nM in series [4] (setting [12]) and 0.07 nM in series [5] (setting [11]).
For the compound `FCC#Cc1ccc([C@@H]2CN3CCC[C@@H]3c3ccccc32)cc1` (relative stereo) [racemic C=CCH2 F], the values for the inhibition constant Ki in series [3], in [4] (setting [12]) and in series [5] (setting [11]) were 24 nM, 8.6 nM and 11.3 nM, respectively.
Regarding `[123I]c1ccc([C@@H]2CN3CCC[C@@H]3c3ccccc32)cc1` [95% ee(6S, 10bR)-I-McN, [^123 I](+)-Trans-1,2,3,5,6,10b-hexaydro-6-[4-iodophenyl]-pyrrolo[2,1-a]isoquinoline], the tissue uptake at 1 h amounted to 0.55 %ID/g in [6] (cerebellum, 5 mg/kg, dopamine blocker GBR 12909 5 mg/kg i.v. 15 min prior, read-out: Cerebellum uptake); 0.46 %ID/g in series [6] (cerebellum, no blocker, read-out: Cerebellum uptake); 0.43 %ID/g in series [6] (cerebellum, serotonin blocker paroxetine 5 mg/kg i.v. 15 min prior, read-out: Cerebellum uptake); 2.1 %ID/g in [6] (cortex, 5 mg/kg, dopamine blocker GBR 12909 5 mg/kg i.v. 15 min prior, read-out: Cortex uptake); 1.88 %ID/g in [6] (cortex, no blocker, read-out: Cortex uptake); 1.8 %ID/g in [6] (cortex, serotonin blocker paroxetine 5 mg/kg i.v. 15 min prior, read-out: Cortex uptake). Also, the tissue uptake at 1 h was 3.62 %ID/g in series [6] (hypothalamus, 5 mg/kg, dopamine blocker GBR 12909 5 mg/kg i.v. 15 min prior, read-out: Hypothalamus uptake); 3.75 %ID/g in [6] (hypothalamus, no blocker, read-out: Hypothalamus uptake); 2 %ID/g in series [6] (hypothalamus, serotonin blocker paroxetine 5 mg/kg i.v. 15 min prior, read-out: Hypothalamus uptake); 2.8 %ID/g in [6] (prefrontal cortex, 5 mg/kg, dopamine blocker GBR 12909 5 mg/kg i.v. 15 min prior, read-out: Prefrontal Cortex uptake); 2.3 %ID/g in [6] (prefrontal cortex, no blocker, read-out: Prefrontal Cortex uptake); 1.98 %ID/g in series [6] (prefrontal cortex, serotonin blocker paroxetine 5 mg/kg i.v. 15 min prior, read-out: Prefrontal Cortex uptake). Also, the tissue uptake at 1 h in series [6] (striatum, 5 mg/kg, dopamine blocker GBR 12909 5 mg/kg i.v. 15 min prior, read-out: Striatum uptake) was determined as 1.36 %ID/g; in [6] (striatum, no blocker, read-out: Striatum uptake), 2.21 %ID/g; in series [6] (striatum, serotonin blocker paroxetine 5 mg/kg i.v. 15 min prior, read-out: Striatum uptake), 1.39 %ID/g. For the same compound, the Cortex/Cereb ratio in series [7] (setting [13]) is 3.82; in series [7] (no blocker) it was 4.08; in series [7] (setting [14]) it was 4.18. Also, the Hypthal/Cereb ratio in series [7] (setting [13]) is 6.6; in series [7] (no blocker), 8.15; in [7] (setting [14]), 4.65. For the same compound, the PrefCx/Cereb ratio in series [7] (setting [13]) was determined as 5.1; in [7] (no blocker) it was 5.0; in [7] (setting [14]), 4.6. In addition, the Striatum/Cereb ratio is 2.47 in [7] (setting [13]), 4.8 in [7] (no blocker) and 3.2 in [7] (setting [14]).
Take `[11CH3]Sc1ccc([C@H]2CN3CCC[C@H]3c3ccccc32)cc1` [Carbon-11 McN-5652Z]: the “accumulation in brain regions” value with serotonin transporter [8] is given as “greatest accumulation in brain regions rich in serotoninergic neurons”.
Consider `COC(=O)[C@H]1[C@@H](c2ccc(I)cc2)C[C@@H]2CC[C@H]1N2C` [RTI-55 (CIT), reference compound], for which the inhibition constant Ki is 38.9 nM in series [3], 0.67 nM in [4] (setting [12]) and 0.47 nM in series [5]. For the same compound, the “in vitro affinity/selectivity for transporter sites” value in series [4] is “high affinity for both serotonin and dopamine transporter sites, and is selective for these two sites versus norepinephrine transporter site”.
As to `Ic1ccc([C@@H]2CN3CCC[C@@H]3c3ccccc32)cc1` [compound 6, trans (95% ee) (6S, 10bR), (+)-(6S, 10bR)-1,2,3,5,6,10b-hexahydro-6-(4'-iodophenyl)pyrrolo[2,1-a]isoquinoline], the inhibition constant Ki in series [3] was determined as 10 nM; in series [4] it was 0.9 nM; in [5] (setting [11]), 0.9 nM.
